Values quoted from earlier work, collected in patent US20090069233A1, “Agonist Peptides of Basic Fibroblast Growth Factor (bFGF) and the Method of Reduction of Wrinkles on Skin, Darkening of Hair and Acceleration of Wound Healing” (priority 2005, published 2009).

How the values were obtained:
[1] = test system: depigmented skin patches of Yucatan swine; details: bFGF by interdermal injection
[2] = test system: depigmented ear lobes of Guinea pigs; details: bFGF by interdermal injection
[3] = test system: melanocytes obtained from the uninvolved areas of untreated vitiligo subjects; details: in vitro cell cultures
artificial wound space = details: poly-vinyl alcohol sponge implant, histological and biochemical analysis
wounds of diabetic mice = details: wound healing experiments

Row | Substance | repigmentation of depigmented skin patches [1] | repigmentation of depigmented ear lobes [2] | correction of abnormalities of melanocytes [3] | neo vascularisation, number of fibroblasts and deposition of collagen in the wound space (artificial wound space) | side effects (wounds of diabetic mice)
1 | epidermal growth factor: other growth factor used as specificity control in repigmentation animal models (NSDSECPLSHDGYCLHDGVCMYIEALDKYACNCVVGYIGERCQYRDLKWWELR; UniProt P01133 971-1023, looked up) [reference compound] | did not have any effect | did not have any effect | – | – | –
2 | bFGF: Basic fibroblast growth factor, a potent mitogen for melanocytes, keratinocytes and fibroblasts | found effect | found effect | corrects all the abnormalities of melanocytes | increase neo vasculatisation the number of fibroblasts and the deposition of collagen in the wound space | no side effects
